Source: article PMC12131788, “Discovery of natural CdnP inhibitors through structure-based virtual screening and molecular dynamics simulations” (Microbiology Spectrum, 2025)

Columns and labels:
CdnP [1] = target: T1, CdnP (Mycobacterium tuberculosis, UniProt P71615); test: Surface plasmon resonance (SPR) binding assay; conditions: for kon: read-out: 1:1 binding ka
Procedure: Binding affinity between CdnP and test compounds was determined using a Biacore 1K instrument (Cytiva). Recombinant CdnP was immobilized on a Series S CM5 sensor chip according to manufacturer’s protocols. Association and dissociation kinetics were measured using a pre-established multi-cycle kinetics/affinity protocol with eight serially diluted compound concentrations in running buffer (10 mM HEPES, pH 7.4, 150 mM NaCl, 3 mM EDTA, 0.005% [vol/vol] Surfactant P20, and 5% [vol/vol] DMSO). Binding data were analyzed using the multi-cycle kinetics model to determine association rate (Ka), dissociation rate (Kd), and equilibrium dissociation constant (KD) values.

CdnP (Rv2837c) = target: T2, CdnP (Rv2837c) (Mycobacterium tuberculosis, UniProt P71615); test: High-throughput enzymatic activity assay (coralyne/c-di-AMP fluorescence); format: biochemical; conditions: for IC50: 100 nM CdnP, 15 µM c-di-AMP, 37°C, read-out: IC50 (half maximal inhibitory concentration); for inhibitory activity against CdnP: at concentrations as high as 1 mM (data not shown)
T2 construct: pET32a vector-encoded fusion (Trx / His6 / S-tag; composition from own knowledge of the vector, His tag consistent with Ni-NTA purification) (N); made in house; host or cells: Escherichia coli BL21(DE3)

CdnP [2] = target: T1, CdnP; conditions: cited from earlier work
[3] = 1:1 binding, multi-cycle kinetics

T2 sequence (P71615 whole entry, the tested form may be a part): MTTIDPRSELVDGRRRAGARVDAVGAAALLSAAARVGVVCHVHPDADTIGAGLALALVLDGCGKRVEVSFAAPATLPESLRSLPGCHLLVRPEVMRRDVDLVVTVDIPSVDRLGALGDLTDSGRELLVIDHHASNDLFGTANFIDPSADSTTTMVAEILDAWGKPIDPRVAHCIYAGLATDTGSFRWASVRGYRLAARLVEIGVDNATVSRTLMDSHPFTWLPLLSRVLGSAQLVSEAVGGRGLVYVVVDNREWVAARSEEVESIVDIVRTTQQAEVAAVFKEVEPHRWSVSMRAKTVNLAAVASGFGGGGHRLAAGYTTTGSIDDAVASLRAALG
T1 sequence (P71615 whole entry, looked up): as the sequence (P71615 whole entry, the tested form may be a part) above

C[C@@H]1O[C@@H](O[C@H]2[C@H](Oc3cc(O)c4c(=O)cc(-c5ccc(O)cc5)oc4c3)O[C@H](CO)[C@@H](O)[C@@H]2O)[C@H](O)[C@H](O)[C@H]1O [Rhoifolin]
Quality kinetics Chi^2 (CdnP [1]): 2.02e-01 RU^2 | kd (CdnP [1]): 0.209 s⁻¹ | tc (CdnP [1]): 1.49e+08 | Kd (CdnP [1]): 0.97 µM | Kd (CdnP [1]; [3]): 0.972 µM | kon (CdnP [1]): 215000 M⁻¹ s⁻¹ | IC50 (CdnP (Rv2837c)): 20.3 ± 1.74 µM

CCCc1nn(C)c2c(=O)[nH]c(-c3cc(S(=O)(=O)N4CCN(C)CC4)ccc3OCC)nc12 [sildenafil]
inhibition of CdnP (CdnP [2]): mild inhibition | inhibitory activity against CdnP (CdnP (Rv2837c)): no detectable inhibitory activity

COc1ccc(-c2cc(=O)c3c(O)cc(O[C@@H]4O[C@H](CO)[C@@H](O)[C@H](O)[C@H]4O[C@@H]4O[C@@H](C)[C@H](O)[C@@H](O)[C@H]4O)cc3o2)cc1O [Neodiosmin]
Quality kinetics Chi^2 (CdnP [1]): 8.92e-02 RU^2 | Rmax (CdnP [1]): 26.8 RU | kd (CdnP [1]): 0.00229 s⁻¹ | tc (CdnP [1]): 1.17e+08 | Kd (CdnP [1]): 380 µM | Kd (CdnP [1]; [3]): 384 µM | kon (CdnP [1]): 5.95 M⁻¹ s⁻¹ | IC50 (CdnP (Rv2837c)): 5.5 ± 1.94 µM

Cc1cc(O)c2c3c1C(=O)C1c4c(c(O)cc5cc(O)cc(C)c45)[C@@]3(COC2=O)[C@H]1O [Macrosporusone A]
Quality kinetics Chi^2 (CdnP [1]): 2.46e+00 RU^2 | kd (CdnP [1]): 1.62e-07 s⁻¹ | tc (CdnP [1]): 1.02e+08 | kon (CdnP [1]): 254000 M⁻¹ s⁻¹ | IC50 (CdnP (Rv2837c)): 16.8 ± 0.44 µM

CC(OCCCCOC(C)n1cnc2c(=O)[nH]cnc21)n1cnc2c(=O)[nH]cnc21 (stereo not shown) [NCI 79195]
IC50 (CdnP [2]): 9.66 µM

COc1ccc([C@]2(C#N)CC[C@@H](C(=O)O)CC2)cc1OC1CCCC1 [Cilomilast, reference compound]
inhibition of CdnP (CdnP [2]): mild inhibition | Quality kinetics Chi^2 (CdnP [1]): 3.17e-01 RU^2 | Rmax (CdnP [1]): 1733.5 RU | kd (CdnP [1]): 0.465 s⁻¹ | tc (CdnP [1]): 6.30e+06 | Kd (CdnP [1]; [3]): 44200 µM | kon (CdnP [1]): 10.5 M⁻¹ s⁻¹ | IC50 (CdnP (Rv2837c)): > 1000 µM | inhibitory activity against CdnP (CdnP (Rv2837c)): no detectable inhibitory activity

CN1CC(=O)N2[C@H](c3ccc4c(c3)OCO4)c3[nH]c4ccccc4c3C[C@@H]2C1=O [tadalafil]
inhibition of CdnP (CdnP [2]): mild inhibition | inhibitory activity against CdnP (CdnP (Rv2837c)): no detectable inhibitory activity

C[C@@H]1O[C@@H](OC[C@H]2O[C@@H](Oc3cc(O)c4c(=O)cc(-c5ccc(O)cc5)oc4c3)[C@H](O[C@@H]3O[C@@H](C)[C@H](O)[C@@H](O)[C@H]3O)[C@@H](O)[C@@H]2O)[C@H](O)[C@H](O)[C@H]1O [Ligustroflavone]
Quality kinetics Chi^2 (CdnP [1]): 4.90e-02 RU^2 | Rmax (CdnP [1]): 1.0 RU | kd (CdnP [1]): 6.42e-06 s⁻¹ | tc (CdnP [1]): 1.16e+08 | Kd (CdnP [1]; [3]): 0.0189 µM | kon (CdnP [1]): 339 M⁻¹ s⁻¹ | IC50 (CdnP (Rv2837c)): 39.5 ± 1.74 µM

O=C1CCc2cc(OCCCCc3nnnn3C3CCCCC3)ccc2N1 [Cilostazol, reference compound]
inhibition of CdnP (CdnP [2]): mild inhibition | Quality kinetics Chi^2 (CdnP [1]): 7.64e-02 RU^2 | kd (CdnP [1]): 0.321 s⁻¹ | tc (CdnP [1]): 5.48e+09 | Kd (CdnP [1]; [3]): 4.18 µM | kon (CdnP [1]): 76700 M⁻¹ s⁻¹ | IC50 (CdnP (Rv2837c)): > 1000 µM | inhibitory activity against CdnP (CdnP (Rv2837c)): no detectable inhibitory activity
